Results as given in US20040110821A1, “GAL3 receptor antagonists for the treatment of affective disorders” (priority 2002, published 2004).
Marks after values point to notes of the source that are not given here.

Tested on: Male albino Sprague-Dawley rats
Test: Rat Social Interaction Test (SIT)
Format: in vivo
Procedure: Rats were allowed to acclimate to the animal care facility for 5 days and were housed singly for 5 days prior to testing. Animals were handled for 5 minutes per day. The design and procedure for the Social Interaction Test was carried out as previously described by Kennett, et al. (1997). On the test day, weight matched pairs of rats (±5%), unfamiliar to each other, were given identical treatments and returned to their home cages. Animals were randomly divided into 5 treatment groups, with 5 pairs per group, and were given one of the following i.p. treatments: Example 92 (10, 30 or 100 mg/kg), vehicle (1 ml/kg) or chlordiazepoxide (5 mg/kg). Dosing was 1 hour prior to testing. Rats were subsequently placed in a white perspex test box or arena (54×37×26 cm), whose floor was divided up into 24 equal squares, for 15 minutes. An air conditioner was used to generate background noise and to keep the room at approximately 74° F. All sessions were videotaped using a JVC camcorder (model GR-SZ1, Elmwood Park, N.J.) with either TDK (HG ultimate brand) or Sony 30 minute videocassettes. All sessions were conducted between 1:00-4:30 P.M. Active social interaction, defined as grooming, sniffing, biting, boxing, wrestling, following and crawling over or under, was scored using a stopwatch (Sportsline model no. 226, 1/100 sec. discriminability). The number of episodes of rearing (animal completely raises up its body on its hind limbs), grooming (licking, biting, scratching of body), and face washing (i.e. hands are moved repeatedly over face), and number of squares crossed were scored. Passive social interaction (animals are lying beside or on top of each other) was not scored. All behaviors were assessed later by an observer who was blind as to the treatment of each pair. At the end.of each test, the box was thoroughly wiped with moistened paper towels.
Male albino Sprague-Dawley rats (Taconic Farms, N.Y.) were housed in pairs under a 12 hr light dark cycle (lights on at 0700 hrs.) with free access to food and water.
Example 92 was dissolved in 100% DMSO (Sigma Chemical Co., St. Louis, Mo.). Chlordiazepoxide (purchased from Sigma Chemical Co., St. Louis, Mo.) was dissolved in double distilled water. The vehicle consisted of 50% DMSO (v/v). All drug solutions were made up 10 minutes prior to injection and the solutions were discarded.
Example 34 was dissolved in 5% lactic acid, v/v. The vehicle consisted of 100% dimethylacetamide (DMA) and this was used to make up all drug solutions. All drug solutions were made up fresh each day and any unused solutions were discarded at the end of the test day. The volume of drug solution administered was 1 ml/kg.
The social interaction data (time interacting, rearing and squares crossed) were subjected to a randomized, one-way ANOVA and post hoc tests conducted using the Student-Newman-Keuls test. The data were subjected to a test of normality (Shapiro-Wilk test). The data were analyzed using the GBSTAT program, version 6.5 (Dynamics Microsystems, Inc., Silver Spring, Md., 1997). All data are presented as means ±S.E.M.

## CNC1=Nc2ccc(Cl)cc2C(c2ccccc2)=[N+]([O-])C1 [Chlordiazepoxide, chlordiazepoxide, reference compound]
5 mg/kg i.p., 1 hour before 15 min test, unfamiliar rats
  Social Interaction (sec): 188 ± 15^b sec
5 mg/kg p.o., one hour before test, unfamiliar cage mates in a familiar arena
  Social Interaction (sec): 122 ± 18^$ sec
